According to patent publication US9096602B2, “Substituted pyrrolo[2,3-B]pyrazines as ATR kinase inhibitors” (Vertex Pharmaceuticals Incorporated, priority 2011, dated 2015):

Molecular target: T1, ATR kinase (full-length ATR) (Homo sapiens, UniProt Q13535)
T1 construct: Assays were carried out at 25° C. in the presence of 5 nM full-length ATR
Assay: ATR Inhibition Assay (radioactive-phosphate incorporation)
Type: biochemical
Details: Ki(app); 5 nM full-length ATR, 10 μM ATP, 800 μM target peptide, 25° C.; class symbols; read-out: ATR Inhibition Ki
Description: Compounds were screened for their ability to inhibit ATR kinase using a radioactive-phosphate incorporation assay. Assays were carried out in a mixture of 50 mM Tris/HCl (pH 7.5), 10 mM MgCl2 and 1 mM DTT. Final substrate concentrations were 10 μM [y-33P]ATP (3mCi 33P ATP/mmol ATP, Perkin Elmer) and 800 μM target peptide ([…]).
Assays were carried out at 25° C. in the presence of 5 nM full-length ATR. An assay stock buffer solution was prepared containing all of the reagents listed above, with the exception of ATP and the test compound of interest. […] The plate was pre-incubated for 10 minutes at 25° C. and the reaction initiated by addition of 15 μL [y-33P]ATP (final concentration 10 μM).
The reaction was stopped after […] by the addition of 30 μL 0.1M phosphoric acid containing 2 mM ATP. A multiscreen phosphocellulose filter 96-well plate (Millipore, Cat no. MAPHN0B50) was pretreated with 100 μL 0.2M phosphoric acid prior to the addition of 45 μL of the stopped assay mixture. The plate was washed with 5×200 μL 0.2M phosphoric acid.
After removing mean background values for all of the data points, Ki(app) data were calculated from non-linear regression analysis of the initial rate data using the Prism software package (GraphPad Prism version 3.0cx for Macintosh, GraphPad Software, San Diego Calif., USA).

T1 sequence (Q13535 whole entry): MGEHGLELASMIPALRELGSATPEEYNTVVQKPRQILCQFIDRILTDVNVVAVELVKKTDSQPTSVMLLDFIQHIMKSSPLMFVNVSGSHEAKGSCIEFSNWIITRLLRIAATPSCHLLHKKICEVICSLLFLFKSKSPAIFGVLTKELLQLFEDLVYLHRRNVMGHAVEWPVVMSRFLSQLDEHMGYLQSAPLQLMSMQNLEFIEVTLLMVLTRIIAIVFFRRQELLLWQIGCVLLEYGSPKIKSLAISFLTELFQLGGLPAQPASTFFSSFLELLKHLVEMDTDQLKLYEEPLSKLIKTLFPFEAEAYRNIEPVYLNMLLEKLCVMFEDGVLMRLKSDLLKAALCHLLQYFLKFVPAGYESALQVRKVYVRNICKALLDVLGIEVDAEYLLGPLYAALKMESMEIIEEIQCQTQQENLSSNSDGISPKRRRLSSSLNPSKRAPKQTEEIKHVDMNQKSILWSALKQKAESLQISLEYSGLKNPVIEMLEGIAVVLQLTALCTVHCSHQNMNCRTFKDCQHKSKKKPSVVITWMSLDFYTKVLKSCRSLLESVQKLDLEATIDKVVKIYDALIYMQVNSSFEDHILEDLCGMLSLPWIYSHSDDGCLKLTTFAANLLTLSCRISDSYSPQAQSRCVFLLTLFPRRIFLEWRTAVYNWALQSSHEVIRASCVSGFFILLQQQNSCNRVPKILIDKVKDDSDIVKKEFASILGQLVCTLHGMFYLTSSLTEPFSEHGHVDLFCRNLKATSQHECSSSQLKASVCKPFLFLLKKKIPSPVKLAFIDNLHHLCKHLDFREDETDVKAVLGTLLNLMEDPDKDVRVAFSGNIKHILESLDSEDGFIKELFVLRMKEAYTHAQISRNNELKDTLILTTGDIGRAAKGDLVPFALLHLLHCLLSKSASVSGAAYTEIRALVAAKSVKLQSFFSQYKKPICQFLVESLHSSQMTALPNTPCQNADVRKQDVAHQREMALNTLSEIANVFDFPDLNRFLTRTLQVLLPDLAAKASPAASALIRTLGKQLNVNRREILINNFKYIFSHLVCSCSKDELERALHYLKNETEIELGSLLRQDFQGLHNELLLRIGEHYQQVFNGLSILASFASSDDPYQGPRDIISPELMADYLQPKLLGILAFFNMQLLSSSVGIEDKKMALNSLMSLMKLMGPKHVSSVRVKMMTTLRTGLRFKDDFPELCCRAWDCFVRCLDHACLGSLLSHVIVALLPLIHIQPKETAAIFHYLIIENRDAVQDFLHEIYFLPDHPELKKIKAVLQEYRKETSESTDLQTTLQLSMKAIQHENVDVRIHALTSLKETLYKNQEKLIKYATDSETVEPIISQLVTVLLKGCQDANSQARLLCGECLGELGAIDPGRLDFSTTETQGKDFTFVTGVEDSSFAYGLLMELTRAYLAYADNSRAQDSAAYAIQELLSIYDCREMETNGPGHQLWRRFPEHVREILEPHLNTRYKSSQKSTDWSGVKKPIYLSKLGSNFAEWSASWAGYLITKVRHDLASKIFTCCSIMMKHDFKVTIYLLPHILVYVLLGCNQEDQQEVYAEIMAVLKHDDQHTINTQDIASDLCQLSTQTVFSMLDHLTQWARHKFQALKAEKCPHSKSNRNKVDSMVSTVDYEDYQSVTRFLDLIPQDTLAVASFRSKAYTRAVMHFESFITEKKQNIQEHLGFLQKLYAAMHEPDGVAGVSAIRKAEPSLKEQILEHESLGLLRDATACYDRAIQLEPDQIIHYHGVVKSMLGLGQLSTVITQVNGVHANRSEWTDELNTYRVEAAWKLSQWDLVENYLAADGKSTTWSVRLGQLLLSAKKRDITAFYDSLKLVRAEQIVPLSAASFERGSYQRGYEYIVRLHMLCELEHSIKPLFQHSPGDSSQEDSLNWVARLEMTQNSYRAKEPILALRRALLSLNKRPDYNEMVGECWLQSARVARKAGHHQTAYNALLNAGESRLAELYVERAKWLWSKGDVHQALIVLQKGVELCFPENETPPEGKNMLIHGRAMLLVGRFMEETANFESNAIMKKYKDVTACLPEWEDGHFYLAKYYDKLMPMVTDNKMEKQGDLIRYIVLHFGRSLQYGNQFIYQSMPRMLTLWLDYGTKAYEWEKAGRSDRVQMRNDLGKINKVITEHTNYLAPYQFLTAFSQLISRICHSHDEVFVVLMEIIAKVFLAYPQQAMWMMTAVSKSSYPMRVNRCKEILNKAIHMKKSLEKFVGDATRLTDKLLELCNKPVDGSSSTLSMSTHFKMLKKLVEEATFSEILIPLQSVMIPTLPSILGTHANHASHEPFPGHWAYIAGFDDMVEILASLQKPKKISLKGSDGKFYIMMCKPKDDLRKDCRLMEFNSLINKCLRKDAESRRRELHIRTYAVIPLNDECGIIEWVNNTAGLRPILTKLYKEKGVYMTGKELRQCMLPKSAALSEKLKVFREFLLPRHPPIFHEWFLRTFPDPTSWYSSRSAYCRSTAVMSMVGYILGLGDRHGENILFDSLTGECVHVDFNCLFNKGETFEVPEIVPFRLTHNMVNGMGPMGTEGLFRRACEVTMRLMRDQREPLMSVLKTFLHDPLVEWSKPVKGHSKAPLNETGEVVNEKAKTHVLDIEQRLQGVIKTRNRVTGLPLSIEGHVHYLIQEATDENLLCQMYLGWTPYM

Structure (SMILES) | Ki
CC(C)S(=O)(=O)c1ccc(-c2cnc3[nH]cc(C(=O)NCc4ccccc4)c3n2)cc1 [Compound I-1, N-benzyl-2-(4-isopropylsulfonylphenyl)-5H-pyrrolo[2,3-b]pyrazine-7-carboxamide] | < 100 nM
CC(C)S(=O)(=O)c1ccc(-c2cnc3[nH]cc(C(=O)Nc4cccnc4)c3n2)cc1 [Compound I-5, 2-(4-isopropylsulfonylphenyl)-N-(3-pyridyl)-5H-pyrrolo[2,3-b]pyrazine-7-carboxamide] | < 100 nM
CC(C)S(=O)(=O)c1ccc(-c2cnc3[nH]cc(C(=O)Nc4ccncc4)c3n2)cc1 [Compound I-6, 2-(4-isopropylsulfonylphenyl)-N-(4-pyridyl)-5H-pyrrolo[2,3-b]pyrazine-7-carboxamide] | 100 to 500 nM
CC(C)S(=O)(=O)c1ccc(-c2cnc3[nH]cc(C(=O)N(Cc4ccccc4)c4ccccc4)c3n2)cc1 [Compound I-8, N-benzyl-2-(4-isopropylsulfonylphenyl)-N-phenyl-5H-pyrrolo[2,3-b]pyrazine-7-carboxamide] | 500 to 5000 nM
CCN(C(=O)c1c[nH]c2ncc(-c3ccc(S(=O)(=O)C(C)C)cc3)nc12)c1ccccc1 [Compound I-9, N-ethyl-2-(4-isopropylsulfonylphenyl)-N-phenyl-5H-pyrrolo[2,3-b]pyrazine-7-carboxamide] | 500 to 5000 nM
COc1ccc(NC(=O)c2c[nH]c3ncc(-c4ccc(S(=O)(=O)C(C)C)cc4)nc23)cc1 [Compound I-12, 2-(4-isopropylsulfonylphenyl)-N-(4-methoxyphenyl)-5H-pyrrolo[2,3-b]pyrazine-7-carboxamide] | 100 to 500 nM
CC(C)S(=O)(=O)c1ccc(-c2cnc3[nH]cc(C(=O)Nc4cccc(C#N)c4)c3n2)cc1 [Compound I-13, N-(3-cyanophenyl)-2-(4-isopropylsulfonylphenyl)-5H-pyrrolo[2,3-b]pyrazine-7-carboxamide] | 100 to 500 nM
Cc1ccccc1CNC(=O)c1c[nH]c2ncc(-c3ccc(S(=O)(=O)C(C)C)cc3)nc12 [Compound I-15, 2-(4-isopropylsulfonylphenyl)-N-(o-tolylmethyl)-5H-pyrrolo[2,3-b]pyrazine-7-carboxamide] | < 100 nM
Cc1cccc(CNC(=O)c2c[nH]c3ncc(-c4ccc(S(=O)(=O)C(C)C)cc4)nc23)c1 [Compound I-16, 2-(4-isopropylsulfonylphenyl)-N-(m-tolylmethyl)-5H-pyrrolo[2,3-b]pyrazine-7-carboxamide] | < 100 nM
CC(C)S(=O)(=O)c1ccc(-c2cnc3[nH]cc(C(=O)Nc4ccccc4N)c3n2)cc1 [Compound I-19, N-(2-aminophenyl)-2-(4-isopropylsulfonylphenyl)-5H-pyrrolo[2,3-b]pyrazine-7-carboxamide] | 100 to 500 nM
CC(C)S(=O)(=O)c1ccc(-c2cnc3[nH]cc(C(=O)Nc4cccc(O)c4)c3n2)cc1 [Compound I-22, N-(3-hydroxyphenyl)-2-(4-isopropylsulfonylphenyl)-5H-pyrrolo[2,3-b]pyrazine-7-carboxamide] | < 100 nM
CC(C)S(=O)(=O)c1ccc(-c2cnc3[nH]cc(C(=O)Nc4cccc(CO)c4)c3n2)cc1 [Compound I-26, N-[3-(hydroxymethyl)phenyl]-2-(4-isopropylsulfonylphenyl)-5H-pyrrolo[2,3-b]pyrazine-7-carboxamide] | < 100 nM
CC(C)S(=O)(=O)c1ccc(-c2cnc3[nH]cc(C(=O)N4CCCc5ccccc54)c3n2)cc1 [Compound I-27, 3,4-dihydro-2H-quinolin-1-yl-[2-(4-isopropylsulfonylphenyl)-5H-pyrrolo[2,3-b]pyrazin-7-yl]methanone] | 100 to 500 nM
CC(C)S(=O)(=O)c1ccc(-c2cnc3[nH]cc(C(=O)NCC4CCC4)c3n2)cc1 [Compound I-29, N-(cyclobutylmethyl)-2-(4-isopropylsulfonylphenyl)-5H-pyrrolo[2,3-b]pyrazine-7-carboxamide] | < 100 nM
CC(C)S(=O)(=O)c1ccc(-c2cnc3[nH]cc(C(=O)NCC4CCCC4)c3n2)cc1 [Compound I-30, N-(cyclopentylmethyl)-2-(4-isopropylsulfonylphenyl)-5H-pyrrolo[2,3-b]pyrazine-7-carboxamide] | 500 to 5000 nM
CC(C)S(=O)(=O)c1ccc(-c2cnc3[nH]cc(C(=O)NC[C@@H]4CCCC[C@H]4O)c3n2)cc1 [Compound I-33, N-[[(1S,2R)-2-hydroxycyclohexyl]methyl]-2-(4-isopropylsulfonylphenyl)-5H-pyrrolo[2,3-b]pyrazine-7-carboxamide] | < 100 nM

More lines, now with the values ahead:

Ki | Structure (SMILES)
< 100 nM | CC(C)S(=O)(=O)c1ccc(-c2cnc3[nH]cc(C(=O)Nc4ccccc4)c3n2)cc1 [Compound I-2, 2-(4-isopropylsulfonylphenyl)-N-phenyl-5H-pyrrolo[2,3-b]pyrazine-7-carboxamide]
100 to 500 nM | CC(C)S(=O)(=O)c1ccc(-c2cnc3[nH]cc(C(=O)Nc4ccccn4)c3n2)cc1 [Compound I-4, 2-(4-isopropylsulfonylphenyl)-N-(2-pyridyl)-5H-pyrrolo[2,3-b]pyrazine-7-carboxamide]
100 to 500 nM | CC(C)S(=O)(=O)c1ccc(-c2cnc3[nH]cc(C(=O)N4CCc5ccccc54)c3n2)cc1 [Compound I-7, indolin-1-yl-[2-(4-isopropylsulfonylphenyl)-5H-pyrrolo[2,3-b]pyrazin-7-yl]methanone]
100 to 500 nM | CC(C)S(=O)(=O)c1ccc(-c2cnc3[nH]cc(C(=O)N(CCO)c4ccccc4)c3n2)cc1 [Compound I-10, N-(2-hydroxyethyl)-2-(4-isopropylsulfonylphenyl)-N-phenyl-5H-pyrrolo[2,3-b]pyrazine-7-carboxamide]
500 to 5000 nM | COc1cccc(NC(=O)c2c[nH]c3ncc(-c4ccc(S(=O)(=O)C(C)C)cc4)nc23)c1 [Compound I-11, 2-(4-isopropylsulfonylphenyl)-N-(3-methoxyphenyl)-5H-pyrrolo[2,3-b]pyrazine-7-carboxamide]
500 to 5000 nM | CC(C)S(=O)(=O)c1ccc(-c2cnc3[nH]cc(C(=O)Nc4ccc(C#N)cc4)c3n2)cc1 [Compound I-14, N-(4-cyanophenyl)-2-(4-isopropylsulfonylphenyl)-5H-pyrrolo[2,3-b]pyrazine-7-carboxamide]
< 100 nM | Cc1ccc(CNC(=O)c2c[nH]c3ncc(-c4ccc(S(=O)(=O)C(C)C)cc4)nc23)cc1 [Compound I-17, 2-(4-isopropylsulfonylphenyl)-N-(p-tolylmethyl)-5H-pyrrolo[2,3-b]pyrazine-7-carboxamide]
< 100 nM | CC(C)S(=O)(=O)c1ccc(-c2cnc3[nH]cc(C(=O)Nc4ccc(N)cc4)c3n2)cc1 [Compound I-18, N-(4-aminophenyl)-2-(4-isopropylsulfonylphenyl)-5H-pyrrolo[2,3-b]pyrazine-7-carboxamide]
< 100 nM | CC(C)S(=O)(=O)c1ccc(-c2cnc3[nH]cc(C(=O)Nc4cccc(N)c4)c3n2)cc1 [Compound I-20, N-(3-aminophenyl)-2-(4-isopropylsulfonylphenyl)-5H-pyrrolo[2,3-b]pyrazine-7-carboxamide]
500 to 5000 nM | CC(C)S(=O)(=O)c1ccc(-c2cnc3[nH]cc(C(=O)NCCN(C)C)c3n2)cc1 [Compound I-21, N-(2-dimethylaminoethyl)-2-(4-isopropylsulfonylphenyl)-5H-pyrrolo[2,3-b]pyrazine-7-carboxamide]
< 100 nM | CC(C)S(=O)(=O)c1ccc(-c2cnc3[nH]cc(C(=O)Nc4ccc(CCO)cc4)c3n2)cc1 [Compound I-24, N-[4-(2-hydroxyethyl)phenyl]-2-(4-isopropylsulfonylphenyl)-5H-pyrrolo[2,3-b]pyrazine-7-carboxamide]
< 100 nM | CC(C)S(=O)(=O)c1ccc(-c2cnc3[nH]cc(C(=O)Nc4ccccc4O)c3n2)cc1 [Compound I-25, N-(2-hydroxyphenyl)-2-(4-isopropylsulfonylphenyl)-5H-pyrrolo[2,3-b]pyrazine-7-carboxamide]
500 to 5000 nM | CC(C)S(=O)(=O)c1ccc(-c2cnc3[nH]cc(C(=O)N4CCC(O)C4)c3n2)cc1 (stereo not drawn) [Compound I-28, (3-hydroxypyrrolidin-1-yl)-[2-(4-isopropylsulfonylphenyl)-5H-pyrrolo[2,3-b]pyrazin-7-yl]methanone]

Same assay, conditions: Ki(app); 5 nM full-length ATR, 10 μM ATP, 800 μM target peptide, 25° C.; given as numeric lower bound without unit; read-out: ATR Inhibition Ki

Ki | Structure (SMILES)
> 250 nM | CC(C)S(=O)(=O)c1ccc(-c2cnc3[nH]cc(C(=O)N(C)c4ccccc4)c3n2)cc1 [Compound I-3, 2-(4-isopropylsulfonylphenyl)-N-methyl-N-phenyl-5H-pyrrolo[2,3-b]pyrazine-7-carboxamide]
> 4000 nM | CC(C)S(=O)(=O)c1ccc(-c2cnc3[nH]cc(C(=O)N4CCCC(O)C4)c3n2)cc1 (stereo not drawn) [Compound I-23, (3-hydroxy-1-piperidyl)-[2-(4-isopropylsulfonylphenyl)-5H-pyrrolo[2,3-b]pyrazin-7-yl]methanone]
> 500 nM | CC(C)S(=O)(=O)c1ccc(-c2cnc3[nH]cc(C(=O)NCC4CCCCC4)c3n2)cc1 [Compound I-31, N-(cyclohexylmethyl)-2-(4-isopropylsulfonylphenyl)-5H-pyrrolo[2,3-b]pyrazine-7-carboxamide]
> 4000 nM | CC(C)S(=O)(=O)c1ccc(-c2cnc3[nH]cc(C(=O)N4CCC(CO)CC4)c3n2)cc1 [Compound I-32, [4-(hydroxymethyl)-1-piperidyl]-[2-(4-isopropylsulfonylphenyl)-5H-pyrrolo[2,3-b]pyrazin-7-yl]methanone]
